Laboratory results published in a melting point compilation (Tetko et al.; mined from patent text by program, amines drawn as free bases though some values may be those of a salt).

Compound	melting point [°C]
OC(COc1ccc(Cl)cc1Cl)(Cn1cnnc1)Cn1cncn1 (stereo not drawn)	182
COc1ccc2c(c1)c1c3c(c(-c4ccccc4Cl)cc1n2CCO)C(=O)NC3=O	255 to 257
O=C(O)C1c2ccccc2COc2ccc(C(F)(F)F)cc21 (stereo not drawn)	258 to 260
O=C(Nc1ccc(F)cc1)c1ccccc1Cl	93.3 to 96.2
Cc1c(Cc2ccccc2)[nH]c2ccccc2c1=O	285 to 287
CC(C)Cn1nnc2c3ncnc-3c3ccncc3n21	181 to 182
N#Cc1c(Cl)c2cc(Cl)ccc2n(Cc2ccccc2)c1=O	243
CCn1cc(C(=O)NO)c(=O)c2ccc(-c3ccncc3)cc21	245
O=c1c2c(O)c(O)ccc2c2cc(O)c(O)cc2n1Cc1ccc([N+](=O)[O-])cc1	258 to 263
O=C(O)c1ccc(-c2ncc(-c3ccc(F)cc3F)o2)cc1	301 to 302
CCOC(COC1CC2C3CCC4=CC(=O)C=CC4(C)C3(F)C(O)CC2(C)C1(O)C(=O)CCl)OCC (stereo not drawn)	200 to 202
CC(=O)c1cnc2c(c1)[C@@H](NC(=O)c1ccccc1Cl)[C@H](O)C(C)(C)O2 (relative stereo)	243 to 244
COc1cc(C=Cc2c(CO)ccc(OC)c2OC)cc(OC)c1OC	120 to 121
Nc1sc2c(c1C(=O)c1ccc(Cl)cc1)CCN(Cc1ccccc1)C2	155 to 157
CCCc1c(C(=O)C(C)C)c2ccc(CC(N)=O)cc2n1Cc1ccccc1Cl	146 to 148
O=C(Nc1cc(Cl)c([N+](=O)[O-])cc1O)c1ccc(Cl)c(Cl)c1	263 to 265
Cc1cc(O)c(SCc2ccccc2F)c(=O)o1	123 to 125
CC(C)[Si](Oc1ccc2c(c1)OCC(N1CCC(O)(c3ccccc3)CC1)C2=O)(C(C)C)C(C)C (stereo not drawn)	132
Cc1ccccc1CCNC(=O)c1ccc(F)cc1	82 to 83
CCOc1cc(OCC)c2c(=O)c(OCC)c(-c3ccccc3)oc2c1	111 to 114
COC(=O)c1cccc2[nH]c(=O)n(Cc3ccc(-c4ccccc4C#N)cc3)c12	250 to 253
CCOc1nc(C2CC2)nc(OCC)c1C=O	86 to 87
Cc1cc(CN2CCNC2=C[N+](=O)[O-])on1	168 to 170
CC1SC(=O)NN=C1c1ccc2c(c1)C(=NNc1ccc(C(C)(C)C)cc1)C(=O)N2 (stereo not drawn)	299
Cc1c(C(=O)N[C@@H](Cc2ccc(OCc3ccoc3)cc2)C(=O)O)oc2cc(-c3ccc(Cl)cc3)ccc12	108 to 110

Compound	melting point [°C]
CC(C)n1nc(-c2nc(S(C)(=O)=O)c(N)nc2-c2ccccc2)ccc1=O	249 to 251
COc1ccc(C2CCCN(C)C2)c2c1NC(=O)C2 (stereo not drawn)	170
O=C(Nc1cccc2c1C(=O)c1c-2n[nH]c1-c1ccc(N2CCC(N3CCCC3)CC2)cc1)NN1CCOCC1	247
CNC(=O)[C@H](Cc1ccc(OC)cc1)NC(=O)[C@@H](N)CC(C)C	128 to 132
COC(=O)c1ccc(S(C)(=O)=O)c(C=NO)c1Cl	126 to 128
C1=Cn2cnnc2C(c2ccccc2)c2ccccc21 (stereo not drawn)	217 to 218
CC1(C)COP(=O)(O)OC1c1cccc2ccccc12 (stereo not drawn)	216 to 217
CC[C@H]1c2ccc(C#N)n2-c2cc(F)c(F)cc2N1S(=O)(=O)c1ccc(OS(N)(=O)=O)cc1	196 to 201
CCCCc1nc2c(N)nc3ccc(OCCC4CCN(C(=O)C(C)C)CC4)cc3c2n1C	189 to 193
CCCCCc1ccc(C(N)C(=O)O)[nH]1 (stereo not drawn)	190 to 195
OC1CCNC(Cc2ccccc2)C1 (stereo not drawn)	114
Cc1cc(C2=C(/C=C/[C@H]3C[C@H](O)CC(=O)O3)C(C)(C)CC3(C2)SCCCS3)ccc1F (relative stereo)	136 to 138
O=C1C2CCCCN2C(=O)N1c1ccc([N+](=O)[O-])c2ccccc12 (stereo not drawn)	190 to 192
CC1(C)CSSC[C@@H](C(=O)O)NC1=O	160 to 162
COc1cc(OCCCN(C)Cc2ccc(OC)c(OC)c2)ccc1NC(=O)c1cccc2c(=O)c3cccc(C)c3[nH]c12	156 to 157
CCOC(=O)C(=Cc1ccc(F)cc1)C(C)=O	80 to 82
CNC(=O)N(O)C(C)C#CCCc1ccccc1 (stereo not drawn)	121 to 123
CC[C@@H](C)[C@H](NC(=O)NCCNC(=O)OC(C)(C)C)C(=O)OC	86 to 89
C=CCC(C)(C)C(=O)O[C@H]1C[C@H](O)C=C2C=C[C@H](C)[C@H](CCC3CC(O)CC(=O)O3)[C@H]21 (stereo partly drawn)	141 to 142
N#Cc1ccc(C(F)(F)F)cc1Sc1ccccc1	51
NS(=O)(=O)c1ccc(-c2cc(-c3nc(-c4ccc(C(F)(F)F)cc4)cc(C(F)(F)F)n3)ccn2)s1	262
COc1ccc(NC(C)c2ccccc2)cc1 (stereo not drawn)	64
CC(C)(C)OC(=O)N1CCC[C@@H](OC(=O)c2ccc(C(=O)c3ccccc3)cc2)[C@H](NC(=O)c2ccc(OC(C)(C)C)cc2)C1	145 to 148
CN1CC(=O)NC(=O)N1c1cc(Cl)c(Oc2ccc(S(C)(=O)=O)cc2)c(Cl)c1	223
CCc1cc(NC(=O)N2CCC(C(=O)O)(c3ccccc3)CC2)c(OC)nc1C	173 to 174

Compound	melting point [°C]
NC(=O)c1cc(-c2ccc(F)cc2)sc1N	170 to 171
O=C(O)C(Cl)CCCCCCCCCCCCC(Cl)C(=O)O (stereo not drawn)	71 to 72
Cc1cc(CO)nc2cc3c(cc12)OC(C)(C)[C@H](O)[C@H]3NCCc1ccc(F)cc1 (relative stereo)	147 to 152
Cc1cc(S(N)(=O)=O)ccc1NC(=O)Cc1ccc(Oc2cc(Cl)cc(C#N)c2)c(Br)c1	215 to 216
CCCC1=C(C)C(=O)c2c(oc(Cc3ccc(OC)cc3)c2C)C1=O	60 to 61
FC(F)(F)Oc1ccc2[nH]c(-c3cccnc3)nc2c1	197 to 199
CCOC(=O)C(NC(=O)C[N+](=O)[O-])C(=O)OCC	118 to 121
N#CCN[C@H]1CCc2c(F)cc(F)cc2C1	73 to 76
CCn1c2ccccc2c(=NN=C2NCCS2)c2ccccc21	187 to 188
Cc1cc(Cl)cc2c1OC(C)(C)C(/C=C/C=C/C=C/C(=O)O)=C2	190 to 192
Cc1c(SCCN2CCOCC2)ccnc1CSc1nc2ccccc2n1CC(N)=O	178 to 180
CCSC1(S)CCC2C3CCC4=CC(=O)C=CC4(C)C3(F)C(O)CC21C (stereo not drawn)	239 to 242
CC1(C(O)=Nc2cc(Cl)cc(Cl)c2)CCC1C(=O)O (stereo not drawn)	110 to 111
CCN(CC)c1ccc2nc3c4ccccc4c(=Nc4cc(C)nc5ccccc45)cc-3oc2c1	229 to 230
Cn1c(S(=O)(=O)c2ccc(C(=O)OCC(C)(C)C)c(Cl)c2)n[nH]c1=O	177
CCCN(CCC)Cc1nc(-c2ncn3c2CN(C)C(=O)c2c-3cccc2C(F)(F)F)no1	216 to 218
COc1ccc(NN=C(Sc2ccc(C(C)(C)C)cc2)C(C)=O)cc1	111 to 113
COc1cccc([C@H]2O[C@H](CC(=O)Nc3nc(C(=O)O)cs3)C(=O)N(CC(C)(C)CO)c3ccc(Cl)cc32)c1OC	277 to 278
CC(C)COc1ccc(C(=O)N/C(=C\c2ccc(OCC(F)F)cc2)C(=O)NCCO)cc1	150 to 151
COCOc1ccc(C=CC(=O)c2ccc(OCc3ccccc3)cc2OC(C)=O)c(OCc2ccccc2)c1	94 to 96
CN(SN1CCOCC1)C(=O)Nc1ccc(Cl)c(Cl)c1	142
O=C(O)Cc1ccc(O)c(OCc2ccccc2)c1	130 to 133
FC(F)(F)c1ccc2c(c1)N=Cc1ccccc1O2	86 to 88
COC1(c2ccc(OC(C)=O)cc2)Sc2ccccc2N(C)C1=O (stereo not drawn)	144 to 146
CCCC(CCC)N1Cc2c(C(=O)O)cc(N(C)S(C)(=O)=O)cc2C1=O	206

Compound	melting point [°C]
Cn1ccnc1C1(CCCCc2ccc(NC(=O)c3ccccc3)cc2)c2ccccc2-c2ccccc21	146 to 148
CCC1CCc2nc3c(c(N)c2C1=O)c1ccccc1n3C (stereo not drawn)	129 to 131
CCCN(CC)C(C)CN1CCc2c(c(=O)oc3cc(OC)ccc23)C1 (stereo not drawn)	100 to 101
Cc1ccc(-n2nc(C(C)(C)C)cc2NC(=O)Nc2ccc(OCCc3ccncc3)c3ccccc23)cn1	189 to 190
CN(C)Cc1cc(-c2ccc3c(c2)CCO3)nn(CC2CC2)c1=O	109 to 110
CS(=O)(=O)c1ccc(-n2cnc3ccc(-c4nnc(C5CC5)o4)cc32)cc1	215 to 216
CC(=C[N+](=O)[O-])NCCN(C)Cc1ccc(Cl)nc1	78 to 80
O=C1C(O)=C(Br)C(=O)c2ccc(F)cc21	183
CCCCc1nn2cc(C(=O)OCC)ccc2c1C(=O)c1ccc(Br)cc1	< 50
CC(=O)OCC(C)(COC(C)=O)C(=O)O	85
CCOC(=O)c1ccc(N)c(Cl)c1	82 to 83
COc1cc(Br)c2oc(-c3ccc(OC)c(C(F)(F)F)c3)nc2c1	183 to 185
COc1ccnc(CCc2nc3cc(-c4ccc(S(=O)(=O)N5CCN(C)CC5)cc4)cnc3[nH]2)c1	193 to 195
CCOC(=O)c1noc(-c2ccc(Cl)cc2)n1	88 to 89
O=C1c2ccccc2C(=O)N1CC1CCc2cccnc2O1 (stereo not drawn)	152 to 158
O=C(O)c1cnn2c(C(F)(F)F)cc(-c3ccc(C(F)(F)F)c(OCC(F)(F)F)c3)nc12	264
CC(C)N(Cc1ccc2cc(NC(=O)c3ccc(-c4ccc(Cl)cc4)nc3)ccc2n1)C(C)C	201 to 203
CCC(C)(Cc1cn(C)c2ccc(OC)cc12)[N+](=O)[O-] (stereo not drawn)	95 to 96
Cn1cc(C2=C(c3cccc(NCCO)c3)C(=O)NC2=O)c2ccccc21	170 to 171
Nc1cc(Cl)c(Cl)c(Cl)c1N	109 to 111
CCOC(=O)c1sc2nc(SCCCN3CCN(c4ccccn4)CC3)[nH]c(=O)c2c1C	160 to 162
CCOC(=O)c1c(S(C)(=O)=O)n(C2CC2)c2c(OC)c(F)c(F)cc2c1=O	177 to 178
Cc1ccc(NS(=O)(=O)c2ccc(N3CCNC3=O)cc2)c(C)c1	238 to 239
